Assay results taken from BindingDB's records for doi:10.1016/j.bmcl.2015.12.003 (University of Auckland, 2016).

test: Inhibition of recombinant perforin (unknown origin) mediated lysis of human Jurkat cells pre-incubated for 30 mins with perforin followed by incubation with Jurkat cells at 37 degC for 4 hrs assessed as 51Cr release by gamma counting analysis

| SMILES | IC50 [µM] |
| --- | --- |
| O=C1OCc2cc(-c3ccc(-c4ccccc4)s3)ccc21 | > 20 |
| Cc1ccccc1-c1ccc(-c2ccc3c(c2)COC3=O)s1 | > 20 |
| Cc1cccc(-c2ccc(-c3ccc4c(c3)COC4=O)s2)c1 | > 20 |
| Cc1ccc(-c2ccc(-c3ccc4c(c3)COC4=O)s2)cc1 | > 20 |
| O=C1OCc2cc(-c3ccc(-c4ccccc4Cl)s3)ccc21 | > 20 |
| O=C1OCc2cc(-c3ccc(-c4cccc(Cl)c4)s3)ccc21 | > 20 |
| O=C1OCc2cc(-c3ccc(-c4ccc(Cl)cc4)s3)ccc21 | > 20 |
| COc1ccccc1-c1ccc(-c2ccc3c(c2)COC3=O)s1 | > 20 |
| COc1cccc(-c2ccc(-c3ccc4c(c3)COC4=O)s2)c1 | > 20 |
| COc1ccc(-c2ccc(-c3ccc4c(c3)COC4=O)s2)cc1 | 9.36 |
| Nc1cccc(-c2ccc(-c3ccc4c(c3)COC4=O)s2)c1 | 14 |
| Nc1ccc(-c2ccc(-c3ccc4c(c3)COC4=O)s2)cc1 | 11.8 |
| O=C1OCc2cc(-c3ccc(-c4cccc(O)c4)s3)ccc21 | 5.89 |
| O=C1OCc2cc(-c3ccc(-c4ccc(O)cc4)s3)ccc21 | > 20 |
| N#Cc1cccc(-c2ccc(-c3ccc4c(c3)COC4=O)s2)c1 | 20 |
| N#Cc1ccc(-c2ccc(-c3ccc4c(c3)COC4=O)s2)cc1 | 6.87 |
| NC(=O)c1cccc(-c2ccc(-c3ccc4c(c3)COC4=O)s2)c1 | 2.97 |
| NC(=O)c1ccc(-c2ccc(-c3ccc4c(c3)COC4=O)s2)cc1 | 0.18 |
| NC(=O)c1ccc(-c2ccc(-c3ccc4c(c3)CNC4=O)s2)cc1 | 6.04 |
| CN1Cc2cc(-c3ccc(-c4ccc(C(N)=O)cc4)s3)ccc2C1=O | > 20 |
| CNC(=O)c1ccc(-c2ccc(-c3ccc4c(c3)COC4=O)s2)cc1 | 10.7 |
| CN(C)C(=O)c1ccc(-c2ccc(-c3ccc4c(c3)COC4=O)s2)cc1 | > 20 |
| CN1CCN(C(=O)c2ccc(-c3ccc(-c4ccc5c(c4)COC5=O)s3)cc2)CC1 | > 20 |

| SMILES | IC50 [µM] |
| --- | --- |
| CN(C)CCCNC(=O)c1ccc(-c2ccc(-c3ccc4c(c3)COC4=O)s2)cc1 | > 20 |
| CCOC(=O)c1ccc(-c2ccc(-c3ccc4c(c3)COC4=O)s2)cc1 | 11 |
| CCOC(=O)c1ccc(-c2ccc(-c3ccc4c(c3)COC4=O)s2)cc1O | > 20 |
| Nc1cc(-c2ccc(-c3ccc4c(c3)COC4=O)s2)ccc1C(=O)O | 5.84 |
| NC(=O)c1ccc(-c2ccc(-c3ccc4c(c3)COC4=O)s2)cc1O | 0.67 |
| O=C(NCCN1CCOCC1)c1ccc(-c2ccc(-c3ccc4c(c3)COC4=O)s2)cc1O | 12.8 |
| CN(C)CCNC(=O)c1ccc(-c2ccc(-c3ccc4c(c3)COC4=O)s2)cc1O | > 20 |
| O=C(NCCO)c1ccc(-c2ccc(-c3ccc4c(c3)COC4=O)s2)cc1O | 3.31 |
| CC(O)CNC(=O)c1ccc(-c2ccc(-c3ccc4c(c3)COC4=O)s2)cc1O (stereo unspecified) | > 20 |
| NC(=O)CNC(=O)c1ccc(-c2ccc(-c3ccc4c(c3)COC4=O)s2)cc1O | 2.65 |
| NC(=O)CCNC(=O)c1ccc(-c2ccc(-c3ccc4c(c3)COC4=O)s2)cc1O | 7.12 |
| NC(=O)c1ccc(-c2ccc(-c3ccc4c(c3)COC4=O)s2)cc1N | 1.2 |
| Nc1cc(-c2ccc(-c3ccc4c(c3)COC4=O)s2)ccc1C(=O)NCCN1CCOCC1 | 14.7 |
| CN(C)CCNC(=O)c1ccc(-c2ccc(-c3ccc4c(c3)COC4=O)s2)cc1N | > 20 |
| CSc1ccc(-c2ccc(-c3ccc4c(c3)COC4=O)s2)cc1 | > 20 |
| O=C1OCc2cc(-c3ccc(-c4ccc(CO)cc4)s3)ccc21 | 0.9 |
| CS(=O)(=O)c1ccc(-c2ccc(-c3ccc4c(c3)COC4=O)s2)cc1 | > 20 |
| NS(=O)(=O)c1cccc(-c2ccc(-c3ccc4c(c3)COC4=O)s2)c1 | 4.85 |
| CC(C)(C)NS(=O)(=O)c1ccc(-c2ccc(-c3ccc4c(c3)COC4=O)s2)cc1 | 6.09 |
| CS(=O)(=O)Nc1ccc(-c2ccc(-c3ccc4c(c3)COC4=O)s2)cc1 | 1.09 |
| NC(=O)c1ccc(-c2ccc(-c3ccc4c(c3)COC4=O)s2)cn1 | 0.92 |
| O=C1OCc2cc(-c3ccc(-c4ccncc4)s3)ccc21 | 4.53 |
| O=C1OCc2cc(-c3ccc(-c4ccc5c(c4)COC5=O)s3)ccc21 | 6.24 |
